Assay results: patent US9102967B2, “PmST2 enzyme for chemoenzymatic synthesis of α-2-3-sialylglycolipids” (priority 2012, dated 2015)

What was measured:
MBP-PmST2-His6 [1] = molecular target: T1, MBP-PmST2-His6 (Pasteurella multocida, UniProt Q9CNC4, M25T); assay type: biochemical; settings: MnCl2/MgCl2 1, 5, 10 or 20 mM; EDTA or 2-ME 1 or 10 mM; acceptor LacβPro-triazole-C14
T1 construct: used to clone of the full-length MBP-PmST2-His6 fusion protein in pMa1-c4X vector; made in house; host or cells: E. coli BL21(DE3)
Method: Reactions were carried out in duplicate at 37° C. for 15 min in a total volume of 15 μl in a Tris-HCl buffer (200 mM, pH 8.0) containing LacβPro-triazole-C14 (2 mM), CMP-Neu5Ac (8 mM), 0.3% Triton X-100, and the enzyme (2.4 μg μl^−1). For metal effects, various concentrations (1, 5, 10, or 20 mM) of MgCl2 or MnCl2 were added and ethylenediaminetetraacetic acid (EDTA as chelating agent was used at two concentrations (1 or 10 mM). A reducing reagent 2-mercaptoethanol (2-ME) was used at two concentrations (1 or 10 mM). Reaction without metal ions, EDTA, or 2-ME was used as a control. All reactions were stopped by adding 15 μl of pre-chilled 95% ethanol and the reaction mixtures were kept on ice. The samples were centrifuged at 13,000 rpm for 5 min before the supernatants were analyzed by CE as described above.

[2] = tested on: N. meningitidis (MC58 and 406Y) Lst; settings: previous report; cited from earlier work
PmST1 [3] = molecular target: T2, PmST1 (Pasteurella multocida, UniProt Q15KI8); settings: cited from earlier work
T2 sequence (Q15KI8 entry or part of it): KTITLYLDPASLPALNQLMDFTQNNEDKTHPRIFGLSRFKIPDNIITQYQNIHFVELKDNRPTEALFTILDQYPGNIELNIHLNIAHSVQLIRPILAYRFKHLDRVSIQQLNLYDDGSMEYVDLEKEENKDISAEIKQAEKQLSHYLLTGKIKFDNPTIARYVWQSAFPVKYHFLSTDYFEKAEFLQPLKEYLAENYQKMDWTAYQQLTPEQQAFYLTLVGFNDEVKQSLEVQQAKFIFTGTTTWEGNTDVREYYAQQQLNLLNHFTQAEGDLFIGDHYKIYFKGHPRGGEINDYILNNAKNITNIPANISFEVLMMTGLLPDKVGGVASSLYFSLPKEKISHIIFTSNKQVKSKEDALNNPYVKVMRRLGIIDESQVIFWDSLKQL

MBP-PmST2-His6 [4] = molecular target: T1, MBP-PmST2-His6; assay: Acceptor substrate specificity studies (CE analysis); assay type: biochemical; settings: for % product formation: acceptor 2 mM, CMP-Neu5Ac 4 mM, 10 min, 37° C., pH 8.0, 0.4% Triton X-100; for % Relative: relative to LacβPro-triazole-C14 = 100
Method: Enzymatic Reactions. All reactions were carried out in duplicate for 10 min at 37° C. in a total volume of 10 μl in Tris-HCl (200 mM, pH 8.0) containing an acceptor substrate (2 mM), CMP-Neu5Ac (4 mM), 0.4% Triton X-100, and enzyme (3.6 μg μl^−1). Addition of 15 μl of cold 95% ethanol was used to terminate each reaction. All reactions were incubated on ice for 10 min and were then centrifuged for 5 min at 13,000 rpm. The supernatant was transferred to a new vial for CE analysis.

MBP-PmST2-His6 [5] = molecular target: T1, MBP-PmST2-His6; assay type: biochemical; settings: for Km / kcat / Vmax: apparent, 37° C.; for Km: Tris-HCl pH 8.0, 0.3% Triton X-100, varied substrate, other fixed (LacβPro-triazole-C14 2.0 mM or CMP-Neu5Ac 4.0 mM); for kcat: pH 8.0; for Vmax: pH 8.0, enzyme 14 μM
Method: Reactions were carried out at 37° C. for […] in a total volume of 15 μl in Tris-HCl buffer (200 mM, pH 8.0) containing 2-mercaptoethanol (1 mM), 0.3% Triton X-100, enzyme (14 μM), with varied CMP-Neu5Ac concentrations (0.25, 0.5, 1.0, 2.0, 5.0, and 10.0 mM) and a fixed LacβPro-triazole-C14 (2.0 mM) concentration, or varied LacβPro-triazole-C14 concentrations (0.5, 1.0, 2.0, 5.0, 10.0, and 20.0 mM) or varied LacβPro2AA concentrations (0.5, 1.0, 2.0, 5.0, 10.0, and 25.0 mM) and a fixed CMP-Neu5Ac concentration (4.0 mM). HPLC assays were used for reactions with LacβPro2AA as the sialyltransferase acceptor and CE assays were used for reactions with LacβPro-triazole-C14 as the sialyltransferase acceptor. Apparent kinetic parameters were obtained by fitting the data (the average values of duplicate assay results) into the Michaelis-Menten equation using Grafit 5.0.

MBP-PmST2-His6 [6] = molecular target: T1, MBP-PmST2-His6; assay: Time-course study of α-2,3-sialyltransferase activity; assay type: biochemical; settings: acceptor 2 mM, CMP-Neu5Ac 8 mM, 37° C., pH 8.0
Method: (§1) Enzymatic reactions were performed in a total volume of 20 μl (when LacβPro2AA was used as an acceptor) or 40 μl (when LacβPro-triazole-C 14 was used as an acceptor) in a Tris-HCl buffer (200 mM, pH 8.0) containing an acceptor (2 mM of LacβPro2AA or LacβPro-triazole-C14), CMP-Neu5Ac (8 mM), 0.3% Triton X-100, and a sialyltransferase ([…] MBP-PmST2-His6 or PmST1) at 37° C. At different time points (0, 1, 5, 10, 15, 20, 30, and 60 min), 1.5 μl aliquots were taken from the LacβPro2AA reaction and pre-chilled 12% acetonitrile aqueous solution (148.5 μl) was added to each aliquot. Similarly, 3.5 μl aliquots were taken from the LacβPro-triazole-C14 reaction at different time points and pre-chilled 95% ethanol (7 μl) was added to each aliquot. All samples were kept on ice for 10 min and then centrifuged for 5 min at 13,000 rpm. Supernatants from LacβPro2AA reactions were analyzed by a Shimadzu LC-2010A HPLC system equipped with a membrane on-line degasser, a temperature control unit, and a fluorescence detector (the excitation wavelength was set at 315 nm and the emission wavelength was set at 400 nm) using a reverse phase Premier C18 column (250×4.6 mm I.D., 5 μm particle size, Shimadzu) protected with a C18 guard column cartridge. Mobile phase used was 12% acetonitrile in water. Supernatants from LacβPro-triazole-C14 reactions were analyzed by a Beckman P/ACE MDQ capillary electrophoresis (CE) system (60 cm×75 μm i.d.) equipped with a PDA detector (optimal absorption at 214 nm). The running buffer used was sodium borate buffer (50 mM, pH 10.2) containing β-cyclcodextrin (20 mM).

PmST1 [7] = molecular target: T2, PmST1; assay: as above; assay type: biochemical
Method: as §1

MBP-PmST2-His6 [8] = molecular target: T1, MBP-PmST2-His6; assay: pH profile of α2-3-sialyltransferase reaction; assay type: biochemical; settings: acceptor 2 mM, 0.3% Triton X-100
Method: Each reaction was carried out in duplicate at 37° C. for 15 min in a buffer (200 mM) with a total volume of 15 μl containing an acceptor (2 mM, LacβPro2AA or LacβPro-triazole-C14), CMP-Neu5Ac (8 mM), 0.3% Triton X-100, and the enzyme MBP-PmST2-His6 (2.4 μg μl^−1). Buffers used were: NaOAc-HOAc (pH 4.0-6.0), Tris-HCl (pH 7.0-9.0), and CHES (pH 10.0). Enzymatic reactions were terminated by adding 15 μl of pre-chilled 95% ethanol. All samples were kept on ice for 10 min and then centrifuged at 13,000 rpm for 5 min. Supernatants were analyzed by HPLC (for LacβPro2AA reaction) or CE (for LacβPro-triazole-C14 reaction) as described above for the time course studies.

## [Cl-].[Cl-].[Mg+2] [MgC12, MgCl2]
MBP-PmST2-His6 [1]
  effect on α2,3-sialyltransferase activity (in words): did not affect the activity significantly
[2]
  stimulation of activity: 2 fold
PmST1 [3]
  effect on sialyltransferase activity of PmST1 (in words): does not stimulate or change the sialyltransferase activity

## lactosyl ceramide [reference compound]
MBP-PmST2-His6 [4]
  acceptor substrate for PmST2 (in words): not an acceptor

## cytidine 5′-monophosphate N-acetylneuraminic acid [CMP-Neu5Ac, reference compound]
MBP-PmST2-His6 [5]
  Km: 1300 ± 100 µM
  kcat: 0.0883 ± 0.0067 s⁻¹
  Vmax: (7.4 ± 0.5) × 10^−2 mM min^−1

## CCCCCCCCCCCCCCc1cn(CCCOC2OC(CO)C(O)C(OC3OC(CO)C(O)C(O)C3O)C2NC(C)=O)nn1 (stereo not shown) [Galβ1-3GlcNAcβPro-triazole-C14]
MBP-PmST2-His6 [4]
  % product formation: <4%
  % Relative: <11%

## Galβ1-3GlcNAcαPro-triazole-C14
MBP-PmST2-His6 [4]
  % product formation: <2%
  % Relative: <6%

## CCCCCCCCCCCCCCc1cn(CCCOC2OC(CO)C(O)C(O)C2O)nn1 (stereo not shown) [GalβPro-triazole-C14]
MBP-PmST2-His6 [4]
  % product formation: 9.2 ± 1.3%
  % Relative: 25.5%

## O=C(O)CN(CCN(CC(=O)O)CC(=O)O)CC(=O)O [EDTA, ethylenediaminetetraacetic acid, reference compound]
MBP-PmST2-His6 [1]
  effect on α2,3-sialyltransferase activity (in words): did not affect the activity significantly

## [Cl][Mn][Cl] [MnC12, MnCl2]
MBP-PmST2-His6 [1]
  effect on α2,3-sialyltransferase activity (in words): did not affect the activity significantly
[2]
  stimulation of activity: 3 fold
PmST1 [3]
  effect on sialyltransferase activity of PmST1 (in words): activity decreases

## Galβ1-4GlcNAcβPro-triazole-C14 [LacNAcβPro-triazole-C14]
MBP-PmST2-His6 [4]
  % product formation: 18.5 ± 2.7%
  % Relative: 51.2%

## CCCCCCCCCCCCCCc1cn(CCCO[C@H]2O[C@H](CO)[C@H](O)[C@H](O[C@@H]3O[C@H](CO)[C@H](O)[C@H](O)[C@H]3O)[C@H]2NC(C)=O)nn1 [Galβ1-3GalNAcαPro-triazole-C14]
MBP-PmST2-His6 [4]
  % product formation: <2%
  % Relative: <6%

## OCCS [2-mercaptoethanol, reference compound]
MBP-PmST2-His6 [1]
  effect on α2,3-sialyltransferase activity (in words): did not affect

## Galβ1-4GlcβPro-triazole-C14 [LacβPro-triazole-C14]
MBP-PmST2-His6 [5]
  fold difference in KM values (stronger binding) versus LacβPro2AA: 7 fold
  Km: 4100 ± 300 µM
  kcat: 0.2 ± 0.017 s⁻¹
  Vmax: (1.7 ± 0.1) × 10^−1 mM min^−1
MBP-PmST2-His6 [5]; from differences in KM and kcat
  fold higher catalytic activity versus LacβPro2AA as acceptor: 10 fold
MBP-PmST2-His6 [4]
  acceptor substrate for PmST2 (in words): best acceptor substrate
  % product formation: 36.1 ± 1.5%
  % Relative: 100%
MBP-PmST2-His6 [6]
  sialylation achieved in 1 hour: 60%
PmST1 [7]; acceptor 2 mM, CMP-Neu5Ac 8 mM, 37° C., pH 8.0
  time at which the sialyltransferase reaction reached optimum: 15 min
PmST1 [7]; at 15 min
  product formation at optimum: less than 5%
MBP-PmST2-His6 [8]
  optimal pH range with this acceptor: 5.0-8.0
